From patent US4716222A, “Substrates for hydrolases” (Hoechst Aktiengesellschaft, priority 1984, dated 1987) come the findings set out here.

One assay concerns leukocyte esterase. Briefly: Determination of leukocyte esterase with test strips. It counts as biochemical. The following applies: test strips immersed in leukocyte suspensions. Here is the method: Indicator paper No. 218 supplied by Macherey-Nage, Dueren, Federal Republic of Germany, was impregnated successively with the following solutions and was dried:
(a) aqueous boric acid buffer 0.25 mol/l, pH 8
(b) tosylalanylresorufin 0.25 g dissolved in 1 l of ethyl acetate.
The drying temperature selected for solution (a) was about 80° C. and that for (b) was about 120° C. The samples used were suspensions containing various concentrations of leukocytes, into which the test strips were briefly immersed. After about 1 minute a red-violet color developed, the intensity of which depended on the concentration of leukocytes. The detection sensitivity of this test system is about 1000 leukocytes per microliter.

A further assay relates to α-glucosidase. In words: Kinetic determination of α-glucosidase activity in human urine. It counts as biochemical. The source says: The activity of α-glucosidase in human urine can be determined very sensitively in a kinetic test with the new substrate 2H-7-0-(α-D-glucopyranosyl)-4-methyl-8-nitrobenzopyran-2-one (compound S1, see Example 1). Since the pH optimum of α-glucosidase is 4 to 6, the activity cannot be measured kinetically with the hitherto customary substrate p-nitrophenyl α-glucopyranoside because the released nitrophenol has only a very low extinction at 405 nm (Table 1).
In contrast, with compound S1 as substrate an absorbance difference in normal human urine of 0,040 per minute could be measured in a kinetic test, and thus the automation of this determination is possible.
A further possibility for the kinetic determination of α-glucosidase activity is the use of 3-H-7-O-(α-glucopyranosyl)phenoxazin-3-one (resorufin-α-D-glucopyranoside). […] At 37°, using 400 μl reagent and 200 μl urine an absorbance difference of 0.136 α per minute was found.

Another assay relates to β-glucosidase. Briefly: Specificity check with purified β-glucosidase. It counts as biochemical.
The target in assay [1] is T1, β-galactosidase (Homo sapiens, UniProt P06280).
T1 construct: from tissue; host or cells: human urine, 10-fold concentrated
T1 sequence (P06280 32-429): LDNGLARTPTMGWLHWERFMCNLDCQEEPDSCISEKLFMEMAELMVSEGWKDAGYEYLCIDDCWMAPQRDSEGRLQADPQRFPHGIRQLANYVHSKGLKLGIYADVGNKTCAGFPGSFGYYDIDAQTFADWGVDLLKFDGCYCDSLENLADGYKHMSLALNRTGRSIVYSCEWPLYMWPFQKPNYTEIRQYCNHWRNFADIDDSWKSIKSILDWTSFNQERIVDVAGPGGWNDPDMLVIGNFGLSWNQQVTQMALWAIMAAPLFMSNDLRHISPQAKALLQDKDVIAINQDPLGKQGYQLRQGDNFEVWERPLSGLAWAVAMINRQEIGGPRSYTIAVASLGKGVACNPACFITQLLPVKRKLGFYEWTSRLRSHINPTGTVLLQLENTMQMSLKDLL
In words: Kinetic determination of galactosidase in human urine with the α-D-galactopyranosyl nitropyridine substrate. It counts as biochemical. The conditions noted are these: 0.2 ml 10-fold concentrated normal urine + 1 ml buffered substrate solution, 405 nm, 22° C. Here is the method:
(§1) The activity of the β-galactosidase in human urine could be kinetically determined by the use of 3-O-([…])-3-hydroxy-2-nitropyridine. For this purpose 0.2 ml of 10-fold concentrated normal urine was added to 1 ml of buffered substrate solution and the extinction change recorded at 405 nm and 22° C. Under these conditions an extinction difference of 1.2 mE/min was measured.

Assay [2] has as its system β-galactosidase. In words: Cleavage of the substrate by β-galactosidase (specificity). It counts as biochemical. On the procedure: as §1
(§2) The β-galactosidase activity could be kinetically measured in human urine by the use of 2H-7-O-(β-D-galactopyranosyl)-4-methyl-8-nitrobenzopyran-2-one (compound S15). An extinction change of 4 mE/min was recorded at 23° C. and 366 nm with the use of 200 μl of buffered substrate solution and 200 μl of urine of normal concentration. […] Also, β-galactosidase in human urine could be kinetically determined by using resorufin-β-D-galactopyranoside (compound S6). […] The activity of β-glucuronidase in human urine could be kinetically measured with 2H-7-O-(β-D-glucuronopyranosyl)-4-methyl-8-nitrobenzopyran-2-one (compound S9).

In assay [3] the target is T2, β-galactosidase (Homo sapiens, UniProt P16278).
T2 construct: from tissue; host or cells: human urine
T2 sequence (P16278 29-677): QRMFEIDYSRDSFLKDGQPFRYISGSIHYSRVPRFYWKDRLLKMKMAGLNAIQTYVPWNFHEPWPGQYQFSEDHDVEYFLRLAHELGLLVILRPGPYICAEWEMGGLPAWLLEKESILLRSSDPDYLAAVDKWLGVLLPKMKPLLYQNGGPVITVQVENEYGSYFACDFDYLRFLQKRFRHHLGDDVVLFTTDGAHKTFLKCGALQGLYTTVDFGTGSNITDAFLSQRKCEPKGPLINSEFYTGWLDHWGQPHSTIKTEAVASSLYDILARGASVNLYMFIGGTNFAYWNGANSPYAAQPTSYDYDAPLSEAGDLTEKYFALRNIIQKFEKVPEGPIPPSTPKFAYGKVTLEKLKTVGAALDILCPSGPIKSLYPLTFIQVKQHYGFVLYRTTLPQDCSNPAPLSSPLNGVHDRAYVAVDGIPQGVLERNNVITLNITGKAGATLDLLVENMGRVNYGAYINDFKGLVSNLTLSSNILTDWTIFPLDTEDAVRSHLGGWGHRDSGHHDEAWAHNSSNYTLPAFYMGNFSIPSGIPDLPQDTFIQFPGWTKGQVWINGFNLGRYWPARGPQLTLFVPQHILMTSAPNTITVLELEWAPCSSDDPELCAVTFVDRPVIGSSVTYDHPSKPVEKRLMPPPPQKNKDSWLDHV
Briefly: Kinetic determination of β-galactosidase activity in human urine. In kind it is biochemical. Here is the method: as §2

The subject of a further assay is IgE. In words: Determination of IgE with a state of the art enzyme immunoassay. The following applies: same incubation periods. Here is the method: A substantial increase in sensitivity could be achieved using the new substrates in an enzyme immunoassay of the state of the art. In this assay the IgE concentration is determined, as a measure of an allergy by means of the indirect antibody technique. With the same incubation periods for the different substrates, an approximately 4.3-fold higher absorbance for resorufin-β-galactoside (compound S6) and an approximately 1.7-fold higher absorbance for 3-hydroxy-2-nitropyridine-β-galacto-side was measured than for the commercially available o-nitrophenyl-β-galactoside.

The test system of assay [4] is N-acetyl-β-glucosaminidase. Briefly: Determination of N-acetylglucosaminidase (enzyme from ox kidney). It counts as biochemical. Here is the method: The sensitivity of the substrates p-nitrophenyl N-acetylaminoglucoside and 2H-7-O-(2-acetamido-2-deoxy-D-glucopyranosyl)-4-methyl-8-nitrobenzopyran-2-one ([…]) were compared to each other using N-acetyl-β-glucosaminidase from ox kidney. To 0.5 ml of substrate solution was added 0.1 ml of an enzyme solution diluted 1:101 (Sigma) and the absorbance change determined at 22° C. and 405 or 365 nm.

In the next assay the target is T3, N-acetylglucosaminidase (Homo sapiens, UniProt P06865+P07686).
T3 construct: from tissue; host or cells: human urine, 10-fold concentrated
T3 sequence (P07686 122-556): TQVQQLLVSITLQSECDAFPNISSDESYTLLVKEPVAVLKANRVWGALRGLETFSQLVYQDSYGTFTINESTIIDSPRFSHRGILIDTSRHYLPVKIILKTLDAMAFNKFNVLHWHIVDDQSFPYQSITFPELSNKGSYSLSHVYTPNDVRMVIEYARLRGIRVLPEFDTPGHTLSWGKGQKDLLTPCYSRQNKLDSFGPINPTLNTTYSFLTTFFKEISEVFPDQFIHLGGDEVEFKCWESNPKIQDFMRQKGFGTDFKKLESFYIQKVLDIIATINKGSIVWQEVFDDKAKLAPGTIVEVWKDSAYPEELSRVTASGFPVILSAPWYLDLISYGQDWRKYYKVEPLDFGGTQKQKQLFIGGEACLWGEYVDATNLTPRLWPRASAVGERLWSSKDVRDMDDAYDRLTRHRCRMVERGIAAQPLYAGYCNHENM
T3 sequence (P06865 89-529): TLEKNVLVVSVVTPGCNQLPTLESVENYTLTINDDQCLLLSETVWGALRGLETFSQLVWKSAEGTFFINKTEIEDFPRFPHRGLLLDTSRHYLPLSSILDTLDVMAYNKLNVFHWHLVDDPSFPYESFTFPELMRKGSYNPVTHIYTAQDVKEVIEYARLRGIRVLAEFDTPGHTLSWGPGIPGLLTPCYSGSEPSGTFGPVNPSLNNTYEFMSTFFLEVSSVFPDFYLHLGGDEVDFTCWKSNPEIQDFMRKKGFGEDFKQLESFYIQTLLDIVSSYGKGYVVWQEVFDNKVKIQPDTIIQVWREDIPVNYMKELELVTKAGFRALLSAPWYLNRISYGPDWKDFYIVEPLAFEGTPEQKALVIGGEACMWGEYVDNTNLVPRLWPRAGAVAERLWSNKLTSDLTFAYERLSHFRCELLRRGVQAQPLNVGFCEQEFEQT
Briefly: Kinetic determination of N-acetylglucosaminidase activity in human urine. It counts as biochemical. The following applies: 365 nm, 10-fold concentrated normal urine. On the procedure: The activity in human urine (10-fold concentrated) can also be kinetically determined with S8. The determination with 0.5 buffered substrate solution and 0.1 ml 10-fold concentrated normal urine at 37° C. and 365 nm gave an absorbance change of 0,023 A/min at pH 5.5 and of 0,014 A/min at pH 4.5.

Take `CC(C)C[C@H](NC(=O)OC(C)(C)C)C(=O)Oc1ccc2nc3ccc(=O)cc-3oc2c1` [Boc-Leu-resorufin]: the detection sensitivity in the assay with leukocyte esterase is 2000 leukocytes per microliter.
For the compound `Cc1cc(=O)oc2c([N+](=O)[O-])c(O[C@H]3O[C@H](CO)[C@@H](O)[C@H](O)[C@H]3O)ccc12` [compound S1, 2H-7-O-(α-D-Glucopyranosyl)-4-methyl-8-nitrobenzopyran-2-one], in the assay on α-glucosidase (normal human urine, kinetic test), the “absorbance difference per minute” value is given as 0,040 per minute. In the assay on β-glucosidase, the “cleavage by β-glucosidase / specificity for α-glucosidase” value is “not cleaved by β-glucosidase”.
Turning to `O=[N+]([O-])c1ncccc1O[C@H]1O[C@H](CO)[C@H](O)[C@H](O)[C@H]1O` [compound S3, 3-O-(α-D-Galactopyranosyl)-2-nitropyridine], the extinction difference on β-galactosidase [1] worked out at 1.2 mE/min. The “cleavage by β-galactosidase” value with β-galactosidase [2] is recorded as “not cleaved by β-galactosidase”.
As for `O=c1ccc2nc3ccc(O[C@@H]4O[C@H](CO)[C@H](O)[C@H](O)[C@H]4O)cc3oc-2c1` [compound S6, Resorufin-8-β-D-galactopyranoside], the absorbance change at β-galactosidase [3] (578 nm, 37° C., human urine) was 0,0038 A/min; in the assay with IgE (measuring wavelength 576 nm, same sample), 0.761. Moreover, in the assay on IgE, the “fold higher absorbance than o-nitrophenyl-β-galactoside” value is “approximately 4.3 fold”.
For the compound `CC(=O)N[C@H]1[C@H](Oc2ccc3c(C)cc(=O)oc3c2[N+](=O)[O-])O[C@H](CO)[C@@H](O)[C@@H]1O` [compound S8], the “absorbance change, fold greater than with p-nitrophenyl acetylaminoglucoside” value in [4] (pH 4.5) is reported as roughly 36 fold. In addition, in [4] (pH 4.5, 22° C., 405 or 365 nm, enzyme solution diluted 1:101), the delta A/min was 0.266 A/min. For the same compound, the absorbance change at N-acetylglucosaminidase (pH 4.5, 37° C.) is 0,014 A/min; at N-acetylglucosaminidase (pH 5.5, 37° C.) it was 0,023 A/min.
With `Cc1cc(=O)oc2c([N+](=O)[O-])c(O[C@@H]3O[C@H](CO)[C@H](O)[C@H](O)[C@H]3O)ccc12` [compound S15, 2H-7-O-(β-Galactopyranosyl)-4-methyl-8-nitrobenzopyran-2-one], the “cleavage by β-galactosidase” value in the assay with β-galactosidase [2] was “not cleaved by β-galactosidase”. The extinction change on β-galactosidase [3] (23° C., 366 nm, 200 μl buffered substrate solution + 200 μl urine of normal concentration) came out at 4 mE/min.
For the compound `O=c1ccc2nc3ccc(O[C@H]4O[C@H](CO)[C@@H](O)[C@H](O)[C@H]4O)cc3oc-2c1` [resorufin-α-D-glucopyranoside, 3-H-7-O-(α-glucopyranosyl)phenoxazin-3-one], the “absorbance difference per minute” value in the assay with α-glucosidase (37°, 400 μl reagent and 200 μl urine, 578 nm, pH 6) is listed as 0.136 per minute. Moreover, in the assay on β-glucosidase, the “cleavage by β-glucosidase / specificity for α-glucosidase” value is recorded as “specific substrate for α-glucosidase”.
With `Cc1ccc(S(=O)(=O)N[C@@H](C)C(=O)Oc2ccc3nc4ccc(=O)cc-4oc3c2)cc1` [tosylalanylresorufin], the detection sensitivity entry in the assay with leukocyte esterase is recorded as “about 1000 leukocytes per microliter”.
